Measurements from US8221991B2, “Orphan nuclear receptor” (priority 1998, dated 2012).
Entries after “also recorded” stand apart in the source; their conditions may differ.

Tests used:
hPXR [1] = target: T1, hPXR (Homo sapiens, UniProt O75469); assay: Cotransfection assay, pSG5-hPXR ATG with (IR6)3-tk-CAT reporter in CV-1 cells; settings: for activation of hPXR (CAT activity): 1 μM lovastatin, 100 μM phenobarbital, 10 μM of the other compounds
T1 sequence (O75469 1-434): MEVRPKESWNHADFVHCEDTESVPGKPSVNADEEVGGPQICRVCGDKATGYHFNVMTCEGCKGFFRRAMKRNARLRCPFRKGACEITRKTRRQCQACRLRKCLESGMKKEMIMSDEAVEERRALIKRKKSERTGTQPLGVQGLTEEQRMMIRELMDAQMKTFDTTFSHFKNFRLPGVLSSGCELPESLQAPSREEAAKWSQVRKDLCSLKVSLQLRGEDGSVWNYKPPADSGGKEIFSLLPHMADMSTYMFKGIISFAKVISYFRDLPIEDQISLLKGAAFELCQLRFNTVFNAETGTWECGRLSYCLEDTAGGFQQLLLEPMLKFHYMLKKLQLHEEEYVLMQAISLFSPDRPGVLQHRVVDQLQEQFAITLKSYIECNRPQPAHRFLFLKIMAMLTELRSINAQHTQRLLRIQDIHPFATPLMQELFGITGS
Experimental: (§1) Cells were treated with 1 μM mevastatin or lovastatin, 100 μM phenobarbital, or 10 μM of the other compounds. Cell extracts were subsequently assayed for CAT activity. […] (FIG. 4C) CARLA was performed with bacterially-expressed GST-hPXR or GST-mPXR1 and [^35S]SRC1.14 synthesized in vitro. […] [^35S]SRC1.14 complexed with GST-hPXR (top panel) or GST-mPXR1 (bottom panel) was precipitated with glutathione-sepharose beads.
(§2) CV-1 cells were plated in 24-well plates in DME medium supplemented with 10% charcoal-stripped fetal calf serum at a density of 1.2×10^5 cells per well. […] Cells were transfected overnight by lipofection using Lipofectamine (Life Technologies, Inc.), according to the manufacturer's instructions. The medium was changed to DME medium supplemented with 10% delipidated calf serum (Sigma) and cells were incubated for an additional 24 hours.
To determine, whether hPXR could regulate transcription through the IR6 motif, a reporter plasmid was generated containing three copies of the CYP3A4 IR6 response element upstream of the tk promoter and CAT gene.
It was next determined whether hPXR might mediate the effects of some or all of these compounds on CYP3A4 expression. CV-1 cells were cotransfected with the pSG5-hPXR ATG expression plasmid and the (IR6)3-tk-CAT reporter plasmid, and the cells were treated with micromolar concentrations of a number of compounds that are known to induce CYP3A gene expression in humans and/or rodents.

GST-mPXR1 [2] = target: T2, GST-mPXR1 (Mus musculus, UniProt O54915); assay: Coactivator-receptor ligand assay (CARLA), GST-mPXR1 with [35S]SRC1.14; format: binding; settings: 10 μM
T2 construct: The LBDs of hPXR and mPXR1 were expressed in E. coli as fusion proteins with glutathione-S-transferase (GST); made in house; host or cells: E. coli
T2 sequence (O54915 143-430 limits assumed): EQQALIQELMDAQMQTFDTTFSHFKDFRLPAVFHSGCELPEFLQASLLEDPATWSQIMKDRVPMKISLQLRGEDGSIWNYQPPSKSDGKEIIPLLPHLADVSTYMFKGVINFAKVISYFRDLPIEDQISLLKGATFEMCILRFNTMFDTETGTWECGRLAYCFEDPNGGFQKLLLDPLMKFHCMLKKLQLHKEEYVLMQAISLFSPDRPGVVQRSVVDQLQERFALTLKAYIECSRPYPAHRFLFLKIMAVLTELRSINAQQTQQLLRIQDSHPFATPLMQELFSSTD
T2 sequence (Q15788 whole entry partner, the tested form may be a part): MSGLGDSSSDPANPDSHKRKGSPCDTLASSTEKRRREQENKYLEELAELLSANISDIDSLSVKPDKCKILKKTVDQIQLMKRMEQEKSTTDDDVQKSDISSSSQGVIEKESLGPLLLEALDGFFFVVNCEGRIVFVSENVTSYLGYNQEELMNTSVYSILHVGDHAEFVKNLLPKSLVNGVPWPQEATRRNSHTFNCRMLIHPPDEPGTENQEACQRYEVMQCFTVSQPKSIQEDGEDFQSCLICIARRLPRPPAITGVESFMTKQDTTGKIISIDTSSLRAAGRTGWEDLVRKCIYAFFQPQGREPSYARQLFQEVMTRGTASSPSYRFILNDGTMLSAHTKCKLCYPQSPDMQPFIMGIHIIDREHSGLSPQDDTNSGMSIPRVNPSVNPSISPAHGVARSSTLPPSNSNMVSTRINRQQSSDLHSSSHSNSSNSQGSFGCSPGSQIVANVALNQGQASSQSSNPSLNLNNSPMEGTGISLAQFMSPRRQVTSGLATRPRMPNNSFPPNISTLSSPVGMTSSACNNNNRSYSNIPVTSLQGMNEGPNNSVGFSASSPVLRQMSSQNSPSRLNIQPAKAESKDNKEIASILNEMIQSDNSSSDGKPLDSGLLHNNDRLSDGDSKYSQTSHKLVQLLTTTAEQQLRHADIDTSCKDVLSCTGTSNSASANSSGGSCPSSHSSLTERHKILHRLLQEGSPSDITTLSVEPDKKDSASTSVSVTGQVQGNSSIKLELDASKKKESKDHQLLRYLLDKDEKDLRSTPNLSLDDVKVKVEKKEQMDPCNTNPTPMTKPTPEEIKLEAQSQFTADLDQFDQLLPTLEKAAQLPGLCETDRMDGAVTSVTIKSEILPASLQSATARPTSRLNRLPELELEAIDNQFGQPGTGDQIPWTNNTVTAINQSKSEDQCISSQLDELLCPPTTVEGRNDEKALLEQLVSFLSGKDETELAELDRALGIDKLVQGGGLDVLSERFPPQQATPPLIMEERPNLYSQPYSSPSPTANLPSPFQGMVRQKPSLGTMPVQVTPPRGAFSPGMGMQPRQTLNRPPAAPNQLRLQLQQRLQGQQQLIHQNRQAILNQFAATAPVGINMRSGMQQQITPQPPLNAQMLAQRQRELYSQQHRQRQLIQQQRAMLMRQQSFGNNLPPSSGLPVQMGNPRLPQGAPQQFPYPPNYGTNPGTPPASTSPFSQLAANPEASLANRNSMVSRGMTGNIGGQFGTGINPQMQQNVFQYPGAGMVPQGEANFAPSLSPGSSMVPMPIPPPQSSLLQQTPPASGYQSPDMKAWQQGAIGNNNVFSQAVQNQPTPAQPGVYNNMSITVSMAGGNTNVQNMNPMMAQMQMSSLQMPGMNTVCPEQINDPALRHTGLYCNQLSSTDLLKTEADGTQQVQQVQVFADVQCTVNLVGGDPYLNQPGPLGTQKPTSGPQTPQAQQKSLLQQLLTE
Experimental: as §1
GST-hPXR fusion protein was expressed in BL21(DE3)plysS cells and bacterial extracts prepared by one cycle of freeze-thaw of the cells in Protein Lysis. Buffer containing 10 mM Tris, pH 8.0, 50 mM KCl, 10 mM DTT, and 1% NP-40 followed by centrifugation at 40,000×g for 30 minutes. Glycerol was added to the resulting supernatant to a final concentration of 10%. Lysates were stored at −80° C. [^35S]SRC1.14 was generated using the TNT rabbit reticulocyte system (Promega) in the presence of Pro-Mix (Amersham). Coprecipitation reactions included 25 μl of lysate containing GST-hPXR fusion protein, 25 μl Incubation Buffer (50 mM KCl, 40 mM HEPES pH 7.5, 5 mM β-mercaptoethanol, 1% Tween-20, 1% non-fat dry milk), 5 μl […], and vehicle (1% DMSO) or compounds as indicated. […]

Biotin-His6-PXR/RXRα = target: T3, Biotin-His6-PXR/RXRα (Homo sapiens, UniProt O75469); assay: biochemical
T3 sequence (O75469 with tags, fused parts or gaps): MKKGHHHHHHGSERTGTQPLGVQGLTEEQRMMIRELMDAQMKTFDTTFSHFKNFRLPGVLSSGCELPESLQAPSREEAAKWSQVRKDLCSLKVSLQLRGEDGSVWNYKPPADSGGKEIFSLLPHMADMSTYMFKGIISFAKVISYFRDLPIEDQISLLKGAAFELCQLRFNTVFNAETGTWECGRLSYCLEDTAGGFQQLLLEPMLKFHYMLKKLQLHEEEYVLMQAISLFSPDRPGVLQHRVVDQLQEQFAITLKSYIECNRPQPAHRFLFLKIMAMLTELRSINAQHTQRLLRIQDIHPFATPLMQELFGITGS
T3 sequence (P19793 with tags, fused parts or gaps partner limits assumed): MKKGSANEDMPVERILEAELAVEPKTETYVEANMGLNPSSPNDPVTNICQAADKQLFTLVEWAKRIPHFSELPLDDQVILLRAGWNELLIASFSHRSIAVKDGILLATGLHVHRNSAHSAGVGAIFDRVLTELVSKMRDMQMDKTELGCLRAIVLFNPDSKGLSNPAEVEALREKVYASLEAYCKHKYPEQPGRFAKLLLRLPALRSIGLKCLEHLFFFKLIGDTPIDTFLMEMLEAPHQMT
Experimental: Test compounds were dissolved in DMSO at 10 mM and diluted 1:10 in DMSO before serially diluting in assay buffer. […] Streptavidin-PVT SPA beads (AmershamPharmacia cat 4 RPNQ0007) were resuspended in assay buffer (50 mM Tris HCl pH 8.0, 50 mM KCl, 1 mM DTT, 0.1 mg/ml essentially fatty acid free bovine serum albumin) at 0.5 mg/ml. Biotin-His6-PXR/RXRα was added to the beads to a final concentration of 50 nM. The receptors were allowed to couple to the SPA beads for thirty minutes at room temperature. The uncoupled receptor was removed by centrifuging the SPA beads at 3000 rpm for 5 minutes in a swinging bucket rotor of a Rupp & Bowman Silencer centrifuge. The receptor coated SPA beads were then resuspended in assay buffer to 3.3 mg/ml. […] The total volume in each well was 100 μL. […] The plates were then allowed to incubate at room temperature until equilibrium was obtained, approximately 1.5 hours. The plates were then counted on a TopCount liquid scintillation counter (Packard) using a protocol optimized for ^3H PVT SPA and programmed to correct for color quenching.

mPXR1 = mPXR1 (Mus musculus, UniProt O54915); settings: CV-1 cells, (IR6)3-tk-CAT reporter; 10 μM
mPXR1, sequence (O54915 whole entry): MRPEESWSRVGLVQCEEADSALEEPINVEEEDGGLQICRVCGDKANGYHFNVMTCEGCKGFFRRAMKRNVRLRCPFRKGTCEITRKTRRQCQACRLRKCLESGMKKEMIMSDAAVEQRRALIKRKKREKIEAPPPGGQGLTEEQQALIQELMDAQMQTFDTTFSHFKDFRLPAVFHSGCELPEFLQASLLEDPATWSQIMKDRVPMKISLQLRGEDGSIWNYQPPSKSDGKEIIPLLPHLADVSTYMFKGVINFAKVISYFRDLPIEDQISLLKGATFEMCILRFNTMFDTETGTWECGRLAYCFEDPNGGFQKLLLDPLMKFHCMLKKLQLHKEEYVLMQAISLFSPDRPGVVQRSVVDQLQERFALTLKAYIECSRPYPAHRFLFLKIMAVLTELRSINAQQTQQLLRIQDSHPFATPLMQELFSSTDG

GST-mPXR1 [3] = target: T2, GST-mPXR1; settings: Kliewer et al, Cell 92:73-82 (1998); cited from earlier work
CYP3A4 gene expression = settings: cited from earlier work
CYP3A1 levels = settings: cited from earlier work
hPXR [4] = target: T1, hPXR; settings: CV-1 cells; 10 μM
Experimental: FIGS. 1A-1D. […] Cell extracts were subsequently assayed for CAT activity.
as §2

In the case of `CCC1(c2ccccc2)C(=O)NC(=O)NC1=O` [phenobarbital], the “activation of hPXR (CAT activity)” value (hPXR [1]) is reported as “activated; also recorded: more efficacious activators of hPXR than mPXR1”.
In the case of `Clc1ccccc1C(c1ccccc1)(c1ccccc1)n1ccnc1` [clotrimazole], the “interaction between GST-mPXR1 and [35S]SRC1.14” value (GST-mPXR1 [2]) is reported as “did not” and the IC50 (Biotin-His6-PXR/RXRα) is reported as 1300 nM.
With `CC[C@H](C)C(=O)O[C@H]1C[C@@H](C)C=C2C=C[C@H](C)[C@H](CC[C@@H]3C[C@@H](O)CC(=O)O3)[C@H]21` [lovastatin] the “activation of hPXR (CAT activity)” value (hPXR [1]) was “activated; also recorded: more efficacious activators of hPXR than mPXR1”.
For `ClC1=C(Cl)[C@]2(Cl)[C@H]3[C@H]([C@H](Cl)C(Cl)[C@@H]3Cl)[C@@]1(Cl)C2(Cl)Cl` (stereo partly drawn) [transnonachlor], the “activation of hPXR (CAT activity)” value (hPXR [1]) was “activated”.
With `CC(=O)[C@H]1CC[C@H]2[C@@H]3CC[C@@H]4CC(=O)CC[C@]4(C)[C@H]3CC[C@]12C` [5 β-pregnane-3,20-dione] the “fold activation of hPXR” value (hPXR [1]; 10 μM) was “roughly 4 fold” and the IC50 (Biotin-His6-PXR/RXRα) was 1000 nM.
In the case of `CC(=O)[C@H]1[C@H](C#N)C[C@H]2[C@@H]3CC=C4C[C@@H](O)CC[C@]4(C)[C@H]3CC[C@@]21C` [PCN], the “activation of hPXR (CAT activity)” value (hPXR [1]) is listed as “activated”, the “fold activation of mPXR1” value (mPXR1) is listed as “roughly 9 fold” and the “interaction of the mPXR1 LBD with SRC1.14” value (GST-mPXR1 [3]) is listed as “promote the interaction”. The “induction of CYP3A4 gene expression / CYP3A levels in human hepatocytes” value (CYP3A4 gene expression) was “only modest effects” and the “effect on CYP3A1 / CYP3A levels in rat hepatocytes” value (CYP3A1 levels) was “marked effects”.
With `C[C@@H]1C[C@H]2[C@@H]3CCC4=CC(=O)C=C[C@]4(C)[C@@]3(F)[C@@H](O)C[C@]2(C)[C@@]1(O)C(=O)COC(=O)CC(C)(C)C` [dexamethasone-t-butylacetate] the “activation of hPXR (CAT activity)” value (hPXR [1]) was “induced reporter levels; also recorded: activated”, the “activation of hPXR (CAT activity)” value (hPXR [1]; listed as Dexamethasone-t-butylacetate) was “most efficacious activators” and the “activation of hPXR (CAT activity), CYP3A1 DR3 PXRE reporter” value (hPXR [4]) was “activated efficiently”.
